How the values were obtained:
Experiment in all cases: Test C greenhouse herbicide test, pre- and postemergence
Assay type in all cases: in vivo
[1] = system: wheat (winter wheat, Triticum aestivum)
Outline: (§1)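 Pre- and postemergence greenhouse screen; values are visual control ratings, 0 meaning no effect and 100 complete kill, assigned relative to untreated plants after 13 to 15 d.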

[2] = system: ryegrass, Italian (Italian ryegrass, Lolium multiflorum)
Outline: as §1

[3] = system: galium (catchweed bedstraw, Galium aparine)
Outline: as §1

[4] = system: pigweed (Amaranthus retroflexus)
Outline: as §1

corn (Zea mays) = system: corn (Zea mays)
Outline: as §1

[5] = system: morningglory (Ipomoea coccinea)
Outline: as §1

[6] = system: barnyardgrass (Echinochloa crus-galli)
Outline: as §1

soybean (Glycine max) = system: soybean (Glycine max)
Outline: as §1

[7] = system: blackgrass (Alopecurus myosuroides)
Outline: as §1

[8] = system: velvetleaf (Abutilon theophrasti)
Outline: as §1

[9] = system: lambsquarters (Chenopodium album)
Outline: as §1

[10] = system: waterhemp (common waterhemp, Amaranthus rudis)
Outline: as §1

[11] = system: nutsedge, yellow (yellow nutsedge, Cyperus esculentus)
Outline: as §1

[12] = system: crabgrass, large (large crabgrass, Digitaria sanguinalis)
Outline: as §1

[13] = system: foxtail, giant (giant foxtail, Setaria faberii)
Outline: as §1

[14] = Postemergence, 31 g ai/ha, scale 0 to 100 (0 no effect, 100 complete control)
[15] = Postemergence, 62 g ai/ha, 0 to 100 scale (0 no effect, 100 complete control)
[16] = Postemergence, 250 g ai/ha, scale 0 to 100, 0 no effect, 100 complete control, 13 to 15 d
[17] = Preemergence, 31 g ai/ha, scale 0 to 100, 0 is no effect, 100 is complete control
[18] = Preemergence, 62 g ai/ha, scale 0 to 100, 0 is no effect, 100 is complete control
[19] = Preemergence, 125 g ai/ha, scale 0 to 100, 0 is no effect, 100 is complete control
[20] = Preemergence, 250 g ai/ha, scale 0 to 100, 0 no effect, 100 complete control
[21] = postemergence, 125 g ai/ha, scale 0 to 100, 0 no effect, 100 complete control

COC(=O)Oc1c(OC)nn(C)c(=O)c1-c1c(C)ccc2ccccc12 [Compound 136]
45: Wheat plant response rating [1, 15] | Plant response rating, Wheat [1, 19] | Wheat plant response rating [1, 20] | Wheat plant response rating [1, 21] | Plant response rating, Blackgrass [7, 16] | Foxtail, Giant plant response rating [13, 15]
25: Barnyardgrass plant response rating [6, 15] | Plant response rating, Barnyardgrass [6, 17] | Crabgrass, Large plant response rating [12, 21]
100: Plant response rating, Galium [3, 19] | Galium plant response rating [3, 20] | Plant response rating, Pigweed [4, 17] | Plant response rating, Pigweed [4, 18] | Plant response rating, Pigweed [4, 19] | Pigweed plant response rating [4, 20] | Plant response rating, Morningglory [5, 16] | Morningglory plant response rating [5, 21] | Plant response rating, Velvetleaf [8, 19] | Velvetleaf plant response rating [8, 20] | Plant response rating, Lambsquarters [9, 16] | Plant response rating, Lambsquarters [9, 19] | Lambsquarters plant response rating [9, 20] | Plant response rating, Waterhemp [10, 16] | Plant response rating, Waterhemp [10, 18] | Waterhemp plant response rating [10, 20] | Plant response rating, Foxtail, Giant [13, 19]
70: Plant response rating, Blackgrass [7, 17] | Plant response rating, Blackgrass [7, 19] | Plant response rating, Nutsedge, Yellow [11, 19] | Foxtail, Giant plant response rating [13, 21]
10: Plant response rating, Wheat [1, 18] | Ryegrass, Italian plant response rating [2, 15] | Plant response rating, Corn (corn (Zea mays); [16]) | Corn plant response rating (corn (Zea mays); [21]) | Soybean plant response rating (soybean (Glycine max); [15]) | Plant response rating, Soybean (soybean (Glycine max); [17]) | Plant response rating, Soybean (soybean (Glycine max); [18]) | Plant response rating, Soybean (soybean (Glycine max); [19]) | Soybean plant response rating (soybean (Glycine max); [21]) | Plant response rating, Blackgrass [7, 14] | Plant response rating, Crabgrass, Large [12, 14]
85: Plant response rating, Ryegrass, Italian [2, 19] | Pigweed plant response rating [4, 21] | Plant response rating, Nutsedge, Yellow [11, 16] | Plant response rating, Foxtail, Giant [13, 18]
75: Plant response rating, Pigweed [4, 14] | Plant response rating, Velvetleaf [8, 14] | Plant response rating, Velvetleaf [8, 17] | Nutsedge, Yellow plant response rating [11, 21] | Plant response rating, Foxtail, Giant [13, 17]
90: Plant response rating, Wheat [1, 16] | Ryegrass, Italian plant response rating [2, 20] | Plant response rating, Galium [3, 14] | Galium plant response rating [3, 15] | Plant response rating, Galium [3, 17] | Galium plant response rating [3, 21] | Plant response rating, Barnyardgrass [6, 19] | Blackgrass plant response rating [7, 20] | Velvetleaf plant response rating [8, 21] | Plant response rating, Lambsquarters [9, 14] | Lambsquarters plant response rating [9, 15] | Plant response rating, Lambsquarters [9, 18] | Plant response rating, Foxtail, Giant [13, 16]
40: Plant response rating, Barnyardgrass [6, 16]
30: Ryegrass, Italian plant response rating [2, 21] | Blackgrass plant response rating [7, 21]
55: Plant response rating, Ryegrass, Italian [2, 18] | Nutsedge, Yellow plant response rating [11, 15]
60: Plant response rating, Crabgrass, Large [12, 19]
80: Pigweed plant response rating [4, 15] | Plant response rating, Morningglory [5, 17] | Plant response rating, Blackgrass [7, 18] | Plant response rating, Waterhemp [10, 14] | Waterhemp plant response rating [10, 15] | Nutsedge, Yellow plant response rating [11, 20]
35: Plant response rating, Wheat [1, 14] | Plant response rating, Ryegrass, Italian [2, 16] | Plant response rating, Barnyardgrass ([6]; Postemergence, 125 g ai/ha, scale 0 to 100, 0 is no effect, 100 is complete control) | Plant response rating, Nutsedge, Yellow [11, 18] | Plant response rating, Crabgrass, Large [12, 16] | Plant response rating, Foxtail, Giant [13, 14]
98: Plant response rating, Galium [3, 18] | Plant response rating, Pigweed [4, 16] | Plant response rating, Morningglory [5, 14] | Morningglory plant response rating [5, 15] | Plant response rating, Morningglory [5, 19] | Morningglory plant response rating [5, 20] | Plant response rating, Velvetleaf [8, 16] | Plant response rating, Waterhemp [10, 17] | Plant response rating, Waterhemp [10, 19] | Foxtail, Giant plant response rating [13, 20]
95: Plant response rating, Galium [3, 16] | Plant response rating, Morningglory [5, 18] | Barnyardgrass plant response rating [6, 20] | Velvetleaf plant response rating [8, 15] | Plant response rating, Velvetleaf [8, 18] | Plant response rating, Lambsquarters [9, 17] | Lambsquarters plant response rating [9, 21] | Waterhemp plant response rating [10, 21] | Crabgrass, Large plant response rating [12, 20]
0: Plant response rating, Wheat [1, 17] | Plant response rating, Corn (corn (Zea mays); [14]) | Plant response rating, Corn (corn (Zea mays); [17]) | Plant response rating, Corn (corn (Zea mays); [19]) | Plant response rating, Crabgrass, Large [12, 17]
50: Plant response rating, Ryegrass, Italian [2, 17] | Plant response rating, Barnyardgrass [6, 18]
15: Plant response rating, Barnyardgrass [6, 14] | Plant response rating, Soybean (soybean (Glycine max); [16]) | Plant response rating, Nutsedge, Yellow [11, 14]
20: Soybean plant response rating (soybean (Glycine max); [20]) | Crabgrass, Large plant response rating [12, 15]
5: Plant response rating, Ryegrass, Italian [2, 14] | Corn plant response rating (corn (Zea mays); [15]) | Plant response rating, Corn (corn (Zea mays); [18]) | Corn plant response rating (corn (Zea mays); [20]) | Plant response rating, Soybean (soybean (Glycine max); [14]) | Blackgrass plant response rating [7, 15] | Plant response rating, Nutsedge, Yellow [11, 17] | Plant response rating, Crabgrass, Large [12, 18]

Source: patent publication US10597388B2, “Pyridazinone herbicides” (FMC CORPORATION, priority 2014, dated 2020)
